PubChem BioAssay AID463074 (Broad Institute, 2010)
Calls of active or inactive are those of the source.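 Rule for the calls: active = AC50 no more than tenfold above the top dose tested, or full inhibition at every dose with a flat fit (cut at about 19 µM in these data); inconclusive = flat curve fit with inhibition between 30% and 70%, or poor fit; inactive = AC50 more than tenfold above the top dose tested.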 Residues, ends and D or L forms follow the SMILES beside them. *: point of attachment. Boc = CC(C)(C)OC(=O)*; Bn = c1ccc(C*)cc1

System: HMLE_sh_eGFP viability, CellTiter-Glo luminescence, 72 h
Experiment: viability loss of HMLE_sh_eGFP cells – cell-based, luminescence, counter-screen for HMLE_sh_ECad selective toxicity project, dose response (AID 463074);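 note: counterscreen control line to flag general toxicity for the HMLE_sh_ECad screen; potency for loss of viability as luminescence drops below DMSO wells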

CC[C@H](C)[C@H]1O[C@]2(CC[C@@H]1C)C[C@@H]1C[C@@H](CC=C(C)[C@@H](O[C@H]3C[C@H](OC)[C@@H](O[C@H]4C[C@H](OC)[C@@H](O)[C@H](C)O4)[C@H](C)O3)[C@@H](C)C=CC=C3CO[C@@H]4[C@H](O)C(C)=C[C@@H](C(=O)O1)[C@]34O)O2
AC50: 1.78 µM

Cc1cc(-c2ccccc2)nc2cc(C(=O)N(Cc3ccccc3)Cc3ccccc3)nn12
AC50: 10.8 µM

CC(=O)Oc1ccc(C2=NN(c3ccccc3)C(c3ccccc3)C2)cc1 (stereo unspecified)
AC50: 4.18 µM

O=S(=O)(c1ccccc1)N(CC(O)Cn1c2ccccc2c2ccccc21)c1ccccc1 (stereo unspecified)
AC50: 6.55 µM

Cc1onc(-c2c(Cl)cccc2Cl)c1C(=O)N/N=C(\N)COc1ccc(Cl)cc1
AC50: 3.8 µM

CC(NC(=O)C1CCC(C(=O)NC(C)c2ccccc2)CC1)c1ccccc1 (stereo unspecified)
AC50: > 19.5 µM (inactive)

CSc1nc2ccccc2cc1/C=C(\C#N)c1cccc(Cl)c1
AC50: 2.73 µM

c1cc(SC2CCCCC2)cc(-c2nc3cnccn3c2NC2CCCCC2)c1
AC50: 1.78 µM

O=C(Nc1cccc(-c2csc(Nc3ccc(Cl)cc3)n2)c1)c1cc([N+](=O)[O-])cc(C(F)(F)F)c1
AC50: 6.88 µM

O=C(N/N=C/c1ccc(Cl)c([N+](=O)[O-])c1)c1cc(-c2ccccc2)nc2ccccc12
AC50: 4.52 µM

CCOC(=O)c1cnc(-n2nc(C)cc2C)nc1NNc1nc(-c2ccccc2)cc(-c2ccccc2)n1
AC50: 3.25 µM

CS(=O)(=O)c1ccc(C(=O)OCC(=O)NC23CC4CC(CC(C4)C2)C3)cc1[N+](=O)[O-]
AC50: 2.39 µM

CCc1ccc2[nH]c(=O)c(C3C(C#N)=C(N)Oc4c3ccc3cccnc43)cc2c1 (stereo unspecified)
AC50: 8.92 µM

O=C(/C=C/c1ccccc1)/C=C/c1ccccc1
AC50: 2.84 µM

CCC(C)Sc1cccc(-c2nc3ccc(C)cn3c2NCc2ccccc2)c1 (stereo unspecified)
AC50: 2.88 µM

Nc1ccc(N2CCN(Cc3ccccc3Cl)CC2)c(Cl)c1
AC50: 5.59 µM

COC(=O)c1c(NC(=O)COc2ccc(Cl)cc2Cl)sc2c1CC(C)(C)NC2(C)C
AC50: 6.62 µM

O=C(/C=C/c1ccc(Cl)cc1)c1ccc([N+](=O)[O-])o1
AC50: 2.19 µM

CCN1CCN(Cc2ccc(OCc3ccccc3)cc2)CC1
AC50: 4.38 µM

Cc1cc(NCc2ccccn2)n2nc(C)c(-c3ccc(Cl)cc3)c2n1
AC50: 5.92 µM

CCc1ccc2nc(N(CCCN(C)C)C(=O)c3ccc(S(=O)(=O)N4CCCc5ccccc54)cc3)sc2c1
AC50: 6.98 µM

Cc1cccc(NC(=O)c2cc(-c3cc(C)cc(C)c3O)n[nH]2)c1
AC50: 4.2 µM

O=S(=O)(c1cnc(Cl)c(Br)c1)N1CCc2ccccc21
AC50: 6.77 µM

O=C(NCc1ccc2c(c1)OCO2)c1nc(S(=O)(=O)Cc2ccccc2F)ncc1Cl
AC50: 6.81 µM

Cc1sc(NC(=O)C2CCCCC2)c(C#N)c1-c1ccccc1
AC50: > 19.5 µM (inactive)

O=c1[nH]c(=O)n(C2C[C@H](O)[C@@H](CO)O2)cc1C(F)(F)F (stereo partly specified)
AC50: 0.946 µM

O=C(N/N=C/c1cc([N+](=O)[O-])ccc1O)c1c[nH]c2ccccc12
AC50: 16.5 µM

Cc1ccsc1/C=N/NC(=O)c1cc(-c2ccncc2)nc2ccccc12
AC50: 0.257 µM

Cc1ccccc1-c1ccc(CN2CCN(C)C(CCO)C2)cc1 (stereo unspecified)
AC50: 5.43 µM

COc1cccc(/C=N/NC(=O)CSc2nnc(C)n2-c2ccccc2)c1O
AC50: 5.01 µM

Cc1c(-c2cccc(Cl)c2)nc2ccccc2c1C(=O)OC/C(O)=C(\C#N)c1nc2ccccc2[nH]1
AC50: 3.12 µM

O=C(NNc1ccccc1Br)C(=O)n1ccc2ccccc21
AC50: 8.69 µM

NC(=O)c1cc([N+](=O)[O-])ccc1NCc1ccc(O)cc1
AC50: 3.1 µM

CC(C)CC(NC(=O)C(NC(=O)C(Cc1ccc(OCc2ccccc2)cc1)NC(=O)OC(C)(C)C)C(C)C)C(N)=O (stereo not drawn) (Boc-Tyr(Bn)-Val-Leu-NH2; configuration not given here)
AC50: > 19.5 µM (inactive)

COc1ccc(-c2sc3cc(OC)c(OC)cc3c2C#CC2(O)CCCCC2)cc1
AC50: 5.19 µM

C/C(=N/Nc1ccc([N+](=O)[O-])cc1)c1ccc(C)cc1C
AC50: 7.68 µM

CC(C)c1ccc(/C=C/C(=O)NC2=NCCS2)cc1
AC50: > 19.5 µM (inactive)

O=C(CCOc1ccccc1)N1CCN(c2ccc(O)cc2)CC1
AC50: 3.25 µM

OCCN(CCO)CC(O)COc1ccc(C23CC4CC(CC(C4)C2)C3)cc1 (stereo unspecified)
AC50: 0.493 µM

CNc1ccccc1C(C)(C)c1cc(-c2cc(C)cc(C)c2)no1
AC50: 18.4 µM

CCCCC(=O)Nc1nc(C)c(-c2csc(Nc3cc(OC)ccc3OC)n2)s1
AC50: 2.27 µM

O=C(Nc1ccn(Cc2ccccc2F)n1)c1ccc(COc2ccccc2Cl)cc1
AC50: 3.52 µM

Cc1sc(-n2c(C)cc(/C=C3\SC(=S)NC3=O)c2C)c(C#N)c1C
AC50: 4.72 µM

Cc1cccc(NS(=O)(=O)c2ccc(C3CCCCC3)cc2)c1
AC50: 5.18 µM

O=C1/C(=C\c2cccnc2)CN(Cc2ccccc2)C/C1=C\c1cccnc1
AC50: 3.9 µM

c1ccc(-c2cc3c(NCC4COc5ccccc5O4)ncnc3s2)cc1 (stereo unspecified)
AC50: 4.99 µM

Cn1c(=O)n(Cc2ccc(F)cc2)c(=O)c2c1nc1n2CCCN1C1CCCCC1
AC50: 4.43 µM

CC(CNC(=S)Nc1cc(F)cc(F)c1)CSc1ccc(Cl)cc1 (stereo unspecified)
AC50: 6.55 µM

CCCOc1ccc(/C=N/Nc2cccc([N+](=O)[O-])c2)c(O)c1
AC50: 3.42 µM

CN(/N=C/c1cc(Br)cc(Br)c1O)c1cccc(C(F)(F)F)n1
AC50: 12.7 µM

S=C(NCC1CCCCC1)Nc1ccc(Oc2ccccc2)cc1
AC50: 5.41 µM

COc1ccc(N(CC(=O)Nc2cc(C)ccc2C)S(=O)(=O)c2c(C)noc2C)cc1
AC50: > 19.5 µM (inactive)

CCCCNc1c(-c2ccc(SC(C)CC)cc2)nc2ccccn12 (stereo unspecified)
AC50: 4.06 µM

N#Cc1c(/N=C/N2CCCC2)oc(-c2ccccc2)c1-c1ccccc1
AC50: 3.02 µM

O=C(c1ccc(OCCN2CCCCC2)cc1)c1c(-c2ccc(O)cc2)sc2cc(O)ccc12
AC50: 2.35 µM

O=[N+]([O-])c1cc(C(F)(F)F)ccc1NCCNC(=S)Nc1ccc(Cl)cc1
AC50: 5.24 µM

O=C(Nc1cccc(S(=O)(=O)Nc2ccc(Cl)cc2)c1)c1cc2c(s1)CCCC2
AC50: 2.79 µM

CCN1CCN(Cc2ccc(NC(=O)c3cc(NC(=O)c4cncc(-c5cccs5)c4)cc(OC)c3)cc2C(F)(F)F)CC1
AC50: 3.52 µM

CCn1c2ccccc2c2cc(NC(=O)c3cc(OC)cc(OC)c3)ccc21
AC50: 0.258 µM

COc1ccc(/C=N/OCC(=O)N2CC3(C)CC2CC(C)(C)C3)cc1 (stereo unspecified)
AC50: 14.3 µM

Cc1[nH]c2ccccc2c1/C=N/NC(=O)C1CC1(c1ccccc1)c1ccccc1 (stereo unspecified)
AC50: 6.08 µM

Oc1ccccc1-n1c(-c2ccccc2)ccc1-c1ccccc1
AC50: 7.62 µM

C[C@@H]1O[C@@H](O[C@@H]2C=C3CCC4C(CC[C@]5(C)[C@@H](c6ccc(=O)oc6)CC[C@]45O)[C@@]3(C)CC2)[C@H](O)[C@H](O)[C@H]1O (stereo partly specified)
AC50: < 0.16 µM

O=C1CC(=C(c2ccccc2)c2ccccc2)C(=O)N1CCCCN1CCN(c2cccc(Cl)c2)CC1
AC50: 2.02 µM

O=C(CN1CCCCCC1)Nc1ccccc1Oc1ccccc1
AC50: 0.808 µM

Cc1ccc2c(c1)c1c(n2CC(O)CNC2CCCCC2)CCCC1 (stereo unspecified)
AC50: 8.31 µM

COc1ccc(/C=C2/C(=O)N(c3nc4ccccc4s3)N=C2CSc2ccc(Cl)cc2)cc1
AC50: 6.5 µM

CCc1nc(N2CCN(Cc3ccc4c(c3)OCO4)CC2)c2oc3ccccc3c2n1
AC50: 3.85 µM

FC(F)(F)c1cc(-c2ccc(Cl)cc2)nc(NCc2cccnc2)n1
AC50: 14 µM

COc1ccc(C2=NN(C(=O)COC(=O)c3ccc(S(C)(=O)=O)c([N+](=O)[O-])c3)C(c3ccco3)C2)cc1 (stereo unspecified)
AC50: 3.84 µM

CCC1=NN(C(=O)c2cccc(Br)c2)C(O)(c2ccc(Br)cc2)C1 (stereo unspecified)
AC50: 1.37 µM

Cc1ccc(-c2cc(C(=O)N3N=C(C(F)F)CC3(O)C(F)F)c3ccccc3n2)cc1C (stereo unspecified)
AC50: 4.55 µM

Cc1ccc(C2C(/C=C3/SC(=S)NC3=O)=C(c3cccs3)Oc3ccccc32)cc1 (stereo unspecified)
AC50: 1.21 µM

Cc1ccc(Cl)cc1N1CCN(C(CC(C)C)c2nnnn2CC2CCCO2)CC1 (stereo unspecified)
AC50: 0.808 µM

O=C(c1cc(-c2cccc(O)c2)on1)N1CCN(C(c2ccccc2)c2ccccc2)CC1
AC50: 3.11 µM

Cc1nnc2sc(SCc3cccc(Cl)c3)nn2c1=O
AC50: > 19.5 µM (inactive)

CCCc1cc2c(=O)c(-c3ccc4c(c3)OCCO4)coc2cc1OC(=O)c1ccco1
AC50: 10.9 µM

Cc1cc2ccccn2c1C(=O)c1ccc([N+](=O)[O-])o1
AC50: 5.71 µM

CCCCNc1nc(Nc2ccc(C)c(Cl)c2)c2cnn(C)c2n1
AC50: 11.5 µM

Cc1ccc(CNc2nc(-c3cccs3)nc3ccccc23)cc1
AC50: 8.41 µM

COC(=O)c1c(NC(=O)c2ccc(C)c(S(=O)(=O)Nc3ccccc3C)c2)sc2c1CCCC2
AC50: 1.31 µM

CCc1ccc(Nc2nc(N)nc(CSc3nc4ccccc4s3)n2)cc1
AC50: > 19.5 µM (inactive)

COc1ccc(-c2cc(C(=O)N3CC4(C)CC3CC(C)(C)C4)no2)cc1 (stereo unspecified)
AC50: 1.43 µM

O=C(Nc1ccc(C(F)(F)F)cc1)c1cccn(Cc2ccc3c(c2)OC(F)(F)O3)c1=O
AC50: 4.91 µM

O=C(COCc1cc(-c2ccc3c(c2)OCO3)on1)N1CCN(c2cccc(C(F)(F)F)c2)CC1
AC50: 2.69 µM

CN(Cc1cnc2nc(N)nc(N)c2n1)c1ccc(C(=O)N[C@@H](CCC(=O)O)C(=O)O)cc1
AC50: < 0.16 µM

CCc1ccc(S(=O)(=O)Nc2ccc(O)c3ccccc23)cc1
AC50: 14.7 µM

Nc1c(S(=O)(=O)c2cccs2)c2nc3ccccc3nc2n1/N=C/c1cccc(O)c1
AC50: 3.87 µM

CCOC(=O)C(=O)NNc1ccc(Cl)cc1
AC50: 1.37 µM

CC(=O)Nc1ccc(SCC(=O)c2cc(C)n(Cc3cccs3)c2C)cc1
AC50: 4.66 µM

CCCCN(CC)S(=O)(=O)c1ccc(C(=O)N(CCCN(C)C)c2nc3cc(C)cc(C)c3s2)cc1
AC50: 7.21 µM

Cc1cccc(-c2oc3ccccc3c2C#CCCCCO)c1
AC50: 7.62 µM

Cc1ccn2c(Nc3ccccc3)c(-c3ccccn3)nc2c1
AC50: 4.57 µM

COc1ccccc1-c1cn[nH]c1-c1ccc(OCc2ccccc2F)cc1O
AC50: 6.88 µM

Cc1cccc(N=N/C(=C\O)C(=O)c2cccs2)c1
AC50: 6.25 µM

O=[N+]([O-])c1cc(S(=O)(=O)N2CCCCCC2)ccc1F
AC50: 3.66 µM

CC(=O)Oc1c(Cl)cc(Cl)cc1/C=C/c1ccc2ccccc2n1
AC50: 2.86 µM

Cc1cc(C)c2c(c1)/C(=C/C(=O)c1ccc(Br)s1)C(=O)N2
AC50: 5.47 µM

N#C/C(=C/c1cn(-c2ccccc2)nc1-c1cccc(OCc2ccc(F)cc2)c1)C(=O)NCCCn1ccnc1
AC50: 3.4 µM

CC1=NN(c2ccccc2)C(=O)/C1=C/c1c(O)n(-c2ccc(F)cc2)[nH]c1=O
AC50: 15.8 µM

O=C(Nc1cc(C(F)(F)F)cc(C(F)(F)F)c1)Nc1cnn(-c2ccc([N+](=O)[O-])cc2)c1C(F)(F)F
AC50: 0.848 µM
